From patent publication US11591331B2, “PARP1 inhibitors and uses thereof” (Xinthera, Inc., priority 2021, dated 2023) come the findings set out here.

One assay has as its system DLD-1 BRCA2(−/−). Briefly: Cell growth inhibition assay (CellTiter-Glo cell viability, 7 days). It counts as cell-based. The conditions noted are these: Homo sapiens, 168 h, DLD-1 BRCA2(-/-) cells. Background: In ATP-based viability assays light output follows the ATP content of the culture.
Assay [1] has as its system MDA-MB-436 (mutated BRCA1) cell lines. Described as above. It counts as cell-based. The conditions noted are these: Homo sapiens, 168 h, MDA-MB-436 cells.

The structures appear in SMILES notation. pEC50: −log10 of the molar value.

As to `CNC(=O)c1ccc(N2CCN(Cc3cnc4cc(C)c(=O)[nH]c4c3)CC2)c(C#N)n1` [Example 37], the pEC50 in the assay with DLD-1 BRCA2(−/−) is 8.85; in assay [1], 9.30.

On to `CCc1cc2ncc(CN3CCN(c4ccc(C(=O)NC5COC5)nc4)[C@H](C)C3)cc2[nH]c1=O` [Example 79], for which the results for the pEC50 (in the assay on DLD-1 BRCA2(−/−); in assay [1]) were 8.02 and 8.43, respectively.

Take `CNC(=O)c1ccc(N2CCN(Cc3cnc4c(C)c(Cl)c(=O)[nH]c4c3)CC2)cn1` [Example 148, 5-{4-[(7-chloro-8-methyl-6-oxo-5H-1,5-naphthyridin-3-yl)methyl]piperazin-1-yl}-N-methylpyridine-2-carboxamide]: the pEC50 is 8.70 with DLD-1 BRCA2(−/−) and 8.82 in assay [1].

As to `CCc1cc2ncc(CN3CCN(c4ccc(C(=O)NC[C@@H](C)O)nc4)CC3)cc2[nH]c1=O` [Example 57], the pEC50 with DLD-1 BRCA2(−/−) was 7.96; in assay [1], 8.44.

In the case of `CNC(=O)c1ccc2c(c1F)OC[C@@H]1CN(Cc3cnc4cc(C)c(=O)[nH]c4c3)CCN21` [Example 94], the figures for the pEC50 (with DLD-1 BRCA2(−/−); in assay [1]) were 7.41 and 7.39, respectively.

As for `CCc1cc2ncc(CN3CCN(c4ccc(C(=O)NC)c(=O)n4C)[C@@H]4C[C@@H]43)cc2[nH]c1=O` (single isomer, unassigned) [Example 114], the pEC50 in the assay with DLD-1 BRCA2(−/−) is 7.96; in assay [1] it was 8.29.

As for `Cc1cnc(N2CCN(Cc3cnc4cc(C5CC5)c(=O)[nH]c4c3)CC2)n1C` [Example 136], the pEC50 is 8.70 in the assay with DLD-1 BRCA2(−/−) and 9.03 in assay [1].

For `Cc1cc2ncc([C@@H](C)N3CCN(c4ccc(C(=O)NC5CC5)nc4)CC3)cc2[nH]c1=O` (single isomer, unassigned) [Example 127], the pEC50 is 7.82 in the assay on DLD-1 BRCA2(−/−) and 8.14 in assay [1].

Consider `CCc1cc2ccc(CN3CCN(c4ccc(C(=O)NC)nc4F)CC3)nc2[nH]c1=O` [Example 150], for which the figures for the pEC50 (in the assay with DLD-1 BRCA2(−/−); in assay [1]) were 7.74 and 8.05, respectively.

`[2H]C([2H])([2H])C([2H])([2H])NC(=O)c1ccc(N2CCN(Cc3cnc4cc(C5CC5)c(=O)[nH]c4c3)CC2)n(C)c1=O` [Example 123]: the pEC50 with DLD-1 BRCA2(−/−) was 7.82; in assay [1], 8.25.

Consider `CCc1cc2ccc(CN3CCN(c4ccc(C(=O)NC)c(=O)n4C)CC3)cc2[nH]c1=O` [Example 89], for which the pEC50 in the assay on DLD-1 BRCA2(−/−) is 8.46; in assay [1], 8.60.

For the molecule `CCc1cc2ncc(CN3CCN(c4cc(F)c(C(=O)NC)cn4)CC3)cc2[nH]c1=O` [Example 51], the results for the pEC50 (in the assay on DLD-1 BRCA2(−/−); in assay [1]) were 7.77 and 8.19, respectively.

Regarding `CCc1cc2ncc(CN3CCN(c4ccc(C(=O)N[C@@H]5CCCOC5)nc4)CC3)cc2[nH]c1=O` (single isomer, unassigned) [Example 54], the pEC50 in the assay on DLD-1 BRCA2(−/−) is 8.55; in assay [1] it was 9.00.

In the case of `CCc1nc2ncc(CN3CCN(c4ccc(C(=O)NC)nc4)CC3)cc2[nH]c1=O` [Example 91], the negative-log EC50 (pEC50) (with DLD-1 BRCA2(−/−); in assay [1]) was 7.89 throughout.

Consider `CNC(=O)c1ccc(C2=CCN(Cc3cnc4cc(Cl)c(=O)[nH]c4c3)CC2)c(F)n1` [Example 153], for which the figures for the negative-log EC50 (pEC50) (in the assay on DLD-1 BRCA2(−/−); in assay [1]) were 9.02 and 9.13, respectively.

With `CNC(=O)c1ccc(N2CCN(Cc3cnc4c(c3)[nH]c(=O)c3ccoc34)[C@@H]3C[C@@H]32)cn1` (single isomer, unassigned) [Example 85], the pEC50 was 7.85 in the assay on DLD-1 BRCA2(−/−) and 7.89 in assay [1].

Take `CCc1cc2ncc(CN3CCN(c4cc(F)ccc4C#N)CC3)cc2[nH]c1=O` [Example 132]: the pEC50 with DLD-1 BRCA2(−/−) is 8.17; in assay [1] it was 8.36.

As to `CCc1cc2ncc([C@H](C)N3CCN(c4ccc(C(=O)NC)nc4)CC3)cc2[nH]c1=O` (single isomer, unassigned) [Example 21], the pEC50 in the assay on DLD-1 BRCA2(−/−) was 8.77; in assay [1], 9.05.

Regarding `CCc1cc2ncc(CN3CCN(c4ccc(C(=O)N[C@H](C)CO)nc4)CC3)cc2[nH]c1=O` [Example 59], the figures for the pEC50 (in the assay on DLD-1 BRCA2(−/−); in assay [1]) were 7.80 and 8.11, respectively.

On to `CNC(=O)c1ccc(N2CCN([C@@H](C)c3cnc4cc(C)c(=O)[nH]c4c3)C[C@H]2C)cn1` (single isomer, unassigned) [Example 121], for which the results for the pEC50 (in the assay with DLD-1 BRCA2(−/−); in assay [1]) were 7.37 and 7.46, respectively.

For `CCc1cc2ncc(CN3CCN(c4ccc(NC(=O)OC5COC5)nc4)CC3)cc2[nH]c1=O` [Example 102], the pEC50 in the assay on DLD-1 BRCA2(−/−) was 7.89; in assay [1], 7.74.

In the case of `CNC(=O)c1ccc(N2CCN(Cc3cnc4cc([C@@H]5CC5(F)F)c(=O)[nH]c4c3)CC2)cn1` (single isomer, unassigned) [Example 143], the pEC50 in the assay with DLD-1 BRCA2(−/−) is 7.89; in assay [1], 7.92.

On to `[2H]C([2H])(c1cnc2cc(C3CC3)c(=O)[nH]c2c1)N1CCN(c2ccc(C(=O)NC3CC3)nc2)CC1` [Example 117], for which the pEC50 was 8.68 with DLD-1 BRCA2(−/−) and 8.92 in assay [1].

For `CCc1cc2ncc(CN3CCN(c4ccc(C(=O)NC[C@@H]5CCOC5)nc4)CC3)cc2[nH]c1=O` [Example 40], the pEC50 in the assay with DLD-1 BRCA2(−/−) is 8.17; in assay [1] it was 8.36.

For the molecule `[2H]C([2H])([2H])C([2H])([2H])NC(=O)c1ccc(N2CCN(Cc3cnc4cc(C5CC5)c(=O)[nH]c4c3)CC2)cn1` [Example 119], the figures for the pEC50 (in the assay with DLD-1 BRCA2(−/−); in assay [1]) were 8.74 and 9.00, respectively.

Regarding `[2H]C([2H])(c1cnc2cc(C3CC3)c(=O)[nH]c2c1)N1CCN(c2ccc(C(=O)NC)nc2)CC1` [Example 115], the pEC50 is 8.72 in the assay on DLD-1 BRCA2(−/−) and 8.89 in assay [1].

With `[2H]C([2H])([2H])NC(=O)c1ccc(N2CCN(Cc3ccc4c5c(c(=O)[nH]c4c3)CCO5)CC2)cn1` [Example 73], the negative logarithm of the EC50 (pEC50) in the assay on DLD-1 BRCA2(−/−) was 8.38; in assay [1] it was 8.66.

Turning to `CNC(=O)c1ccc(N2CCN(Cc3cnc4cc(C)c(=O)[nH]c4c3)CC2)c(C#N)c1` [Example 38], the pEC50 in the assay on DLD-1 BRCA2(−/−) was 8.12; in assay [1], 8.28.

Consider `CNC(=O)c1ccc(N2CCN(Cc3cnc4c(C(F)F)c(C)c(=O)[nH]c4c3)CC2)cn1` [Example 151], for which the pEC50 with DLD-1 BRCA2(−/−) was 7.80; in assay [1] it was 7.55.

Regarding `CNC(=O)c1ncc(N2CCN(Cc3cnc4cc(C5CC5)c(=O)[nH]c4c3)[C@H]3C[C@H]32)cc1F` (single isomer, unassigned) [Example 113], the pEC50 is 7.35 in the assay with DLD-1 BRCA2(−/−) and 7.70 in assay [1].

Take `CCc1cc2ncc(CN3CCN(c4ccc(NC(=O)N5CCOCC5)nc4)CC3)cc2[nH]c1=O` [Example 101]: the results for the pEC50 (in the assay on DLD-1 BRCA2(−/−); in assay [1]) were 7.77 and 8.01, respectively.

As to `Cc1cc2ncc(CN3CCN(c4ccc(C(=O)NC5CC5)nc4)[C@@H]4C[C@@H]43)cc2[nH]c1=O` (single isomer, unassigned) [Example 109], the values for the pEC50 (in the assay with DLD-1 BRCA2(−/−); in assay [1]) were 7.43 and 7.85, respectively.

Take `Cc1cc2ncc([C@H](C)N3CCN(c4ccc(C(=O)NC5CC5)nc4)CC3)cc2[nH]c1=O` (single isomer, unassigned) [Example 126]: the figures for the pEC50 (in the assay on DLD-1 BRCA2(−/−); in assay [1]) were 7.85 and 8.37, respectively.

For the molecule `CCc1cc2ncc(CN3CCN(c4ccc(C(=O)NC(C)C)nc4)CC3)cc2[nH]c1=O` [Example 43], the pEC50 is 8.62 in the assay on DLD-1 BRCA2(−/−) and 8.49 in assay [1].

With `CCc1cc2ncc(CN3CCN(c4ccncn4)CC3)cc2[nH]c1=O` [Example 106], the pEC50 was 8.24 in the assay with DLD-1 BRCA2(−/−) and 8.18 in assay [1].

`CCc1cc2ncc(CN3CCN(c4ccc(C(=O)NC[C@H]5CCOC5)nc4)CC3)cc2[nH]c1=O` [Example 41]: the pEC50 is 8.62 in the assay on DLD-1 BRCA2(−/−) and 8.72 in assay [1].

In general, pEC50 refers to the negative decadic logarithm of the EC50, by convention in mol/L. Lower therefore signals a high EC50.
